# Assay results: patent US9260408B2, “Dihydroquinoline-2-one derivatives” (Hoffmann-La Roche Inc., priority 2011, dated 2016)
# Structures can show the parent of a compound that is named as a salt.
# Columns and labels:
# [1] = biological target: T1, human CYP11B2 (Homo sapiens, UniProt P19099); experiment: G-402 cellular enzyme assay, human CYP11B2 (aldosterone release, HTRF); assay type: cell-based; details: G-402 cells expressing human CYP11B2; 1 μM Deoxycorticosterone
# T1 construct: expressed in transfected cells
# T1 sequence (P19099 25-503): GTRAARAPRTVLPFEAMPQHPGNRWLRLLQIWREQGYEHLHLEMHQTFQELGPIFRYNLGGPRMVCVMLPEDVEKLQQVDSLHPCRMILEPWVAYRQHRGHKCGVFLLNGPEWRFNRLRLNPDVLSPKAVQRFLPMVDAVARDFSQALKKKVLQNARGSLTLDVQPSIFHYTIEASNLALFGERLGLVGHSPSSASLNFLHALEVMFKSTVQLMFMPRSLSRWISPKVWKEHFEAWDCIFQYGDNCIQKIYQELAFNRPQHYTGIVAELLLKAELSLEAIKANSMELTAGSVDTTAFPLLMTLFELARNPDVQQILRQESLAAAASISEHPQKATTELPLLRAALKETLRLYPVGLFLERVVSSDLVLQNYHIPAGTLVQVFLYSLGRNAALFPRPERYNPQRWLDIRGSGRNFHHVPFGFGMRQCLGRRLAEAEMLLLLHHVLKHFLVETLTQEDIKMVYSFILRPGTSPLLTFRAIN
# How it was run: (§1)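 EC50 comes from least-squares fitting of a 4-parameter MMF curve to steroid product levels, measured by HTRF as aldosterone for CYP11B2 or cortisol for CYP11B1. Stably transfected G-402 host cells were given substrate (1 μM deoxycorticosterone or deoxycortisol, respectively) with inhibitor for 16 h in medium with 2.5% charcoal-treated FCS.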
# [2] = biological target: T2, human CYP11B1 (Homo sapiens, UniProt P15538); experiment: G-402 cellular enzyme assay, human CYP11B1 (cortisol release, HTRF); assay type: cell-based; details: G-402 cells expressing human CYP11B1; 1 μM Deoxycortisol
# T2 construct: expressed in transfected cells
# T2 sequence (P15538 25-503): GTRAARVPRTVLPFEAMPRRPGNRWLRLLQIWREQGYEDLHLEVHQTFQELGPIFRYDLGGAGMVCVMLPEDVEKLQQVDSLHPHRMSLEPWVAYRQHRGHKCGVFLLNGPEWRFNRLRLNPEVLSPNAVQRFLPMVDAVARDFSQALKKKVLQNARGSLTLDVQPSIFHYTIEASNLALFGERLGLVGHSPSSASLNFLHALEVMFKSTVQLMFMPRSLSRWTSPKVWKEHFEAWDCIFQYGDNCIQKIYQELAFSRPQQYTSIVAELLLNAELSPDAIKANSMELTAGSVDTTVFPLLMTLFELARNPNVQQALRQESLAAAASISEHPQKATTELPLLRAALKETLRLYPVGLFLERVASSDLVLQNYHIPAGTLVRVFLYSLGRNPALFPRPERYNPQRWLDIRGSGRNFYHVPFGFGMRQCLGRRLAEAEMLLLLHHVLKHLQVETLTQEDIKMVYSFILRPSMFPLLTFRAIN
# How it was run: as §1
EC50 [1],EC50 [2],Structure (SMILES)
6 nM,302 nM,"CCS(=O)(=O)N(C)Cc1cncc(-c2ccc3c(c2)CCC(=O)N3C)c1 [Example 182, Ethanesulfonic acid methyl-[5-(1-methyl-2-oxo-1,2,3,4-tetrahydro-quinolin-6-yl)-pyridin-3-ylmethyl]-amide]"
83 nM,4960 nM,"CCS(=O)(=O)NCc1cncc(-c2cc(Cl)c3c(c2)CCC(=O)N3)c1 [Example 203, Ethanesulfonic acid [5-(8-chloro-2-oxo-1,2,3,4-tetrahydro-quinolin-6-yl)-pyridin-3-ylmethyl]-amide]"
17 nM,1070 nM,"CN1C(=O)CCc2cc(-c3cncc(CNC(=O)c4cnn(C)c4)c3)ccc21 [Example 87, 1-Methyl-1H-pyrazole-4-carboxylic acid [5-(1-methyl-2-oxo-1,2,3,4-tetrahydro-quinolin-6-yl)-pyridin-3-ylmethyl]-amide]"
170 nM,3700 nM,"CCS(=O)(=O)Nc1cncc(-c2ccc3c(c2)CCC(=O)N3C)c1 [Example 1, Ethanesulfonic acid [5-(1-methyl-2-oxo-1,2,3,4-tetrahydro-quinolin-6-yl)-pyridin-3-yl]-amide]"
5 nM,513 nM,"CN1C(=O)CCc2cc(-c3cncc(OCCN)c3)c(F)cc21 [Example 238, 6-[5-(2-Amino-ethoxy)-pyridin-3-yl]-7-fluoro-1-methyl-3,4-dihydro-1H-quinolin-2-one hydrochloride]"
29 nM,1260 nM,"CN1C(=O)CCc2cc(-c3cncc(CN[S@+]([O-])C(C)(C)C)c3Cl)ccc21 [Example 217, (R)-2-Methyl-propane-2-sulfinic acid [4-chloro-5-(1-methyl-2-oxo-1,2,3,4-tetrahydro-quinolin-6-yl)-pyridin-3-ylmethyl]-amide]"
5 nM,110 nM,CN1C(=O)CCc2cc(-c3cncc(NCc4ccccc4)n3)ccc21 [Example 25]
4 nM,108 nM,CN1C(=O)CCc2cc(-c3cncc(CNC(=O)c4cncnc4)c3)ccc21 [Example 86]
308 nM,1570 nM,CN1C(=O)CCc2cc(-c3cncc(N4CCCC4=O)c3)ccc21 [Example 14]
5 nM,138 nM,Cc1cnc(C(=O)NCc2cncc(-c3ccc4c(c3)CCC(=O)N4C)c2)cn1 [Example 124]
2 nM,50 nM,CN1C(=O)CCc2cc(-c3cncc(NCc4ccccc4)c3)ccc21 [Example 12]
22 nM,679 nM,"Cc1noc(C)c1C(=O)NC(C)c1cncc(-c2ccc3c(c2)CCC(=O)N3C)c1Cl (single isomer, unassigned) [Example 257, 3,5-Dimethyl-isoxazole-4-carboxylic acid {(R or S)-1-[4-chloro-5-(1-methyl-2-oxo-1,2,3,4-tetrahydro-quinolin-6-yl)-pyridin-3-yl]-ethyl}-amide]"
75 nM,1570 nM,Cc1noc(C)c1C(=O)NC1(c2cncc(-c3ccc4c(c3)CCC(=O)N4C)c2)CC1 [Example 113]
32 nM,1110 nM,Cc1nc(C(=O)NCc2cncc(-c3ccc4c(c3)CCC(=O)N4C)c2)c(C(F)(F)F)o1 [Example 108]
10 nM,535 nM,"CCS(=O)(=O)NC(C)c1cncc(-c2cc3c(cc2F)N(C)C(=O)CC3)c1 (racemic) [Example 178, (rac)-Ethanesulfonic acid {1-[5-(7-fluoro-1-methyl-2-oxo-1,2,3,4-tetrahydro-quinolin-6-yl)-pyridin-3-yl]-ethyl}-amide]"
227 nM,9740 nM,"CCS(=O)(=O)N(Cc1cncc(-c2ccc3c(c2)CCC(=O)N3C)c1)C(C)C [Example 184, Ethanesulfonic acid isopropyl-[5-(1-methyl-2-oxo-1,2,3,4-tetrahydro-quinolin-6-yl)-pyridin-3-ylmethyl]-amide]"
58 nM,750 nM,CN1C(=O)CCc2cc(-c3cncc(CN4CCCC4=O)c3)ccc21 [Example 18]
13 nM,291 nM,"Cc1c(-c2cc3c(cc2F)N(C)C(=O)CC3)cncc1C(C)NC(=O)c1ncccc1Cl (single isomer, unassigned) [Example 258, 3-Chloro-pyridine-2-carboxylic acid {(R or S)-1-[5-(7-fluoro-1-methyl-2-oxo-1,2,3,4-tetrahydro-quinolin-6-yl)-4-methyl-pyridin-3-yl]ethyl}-amide]"
35 nM,302 nM,CN1C(=O)CCc2cc(-c3cncc(CNC(=O)C(C)(C)O)c3)ccc21 [Example 79]
3 nM,267 nM,CN1C(=O)CCc2cc(-c3cncc(C(C)(C)NC(=O)c4ncccc4Cl)c3)ccc21 [Example 138]
14 nM,276 nM,CN1C(=O)CCc2cc(-c3cncc(CNC(=O)c4ccnnc4)c3)ccc21 [Example 89]
7 nM,251 nM,"Cc1c(-c2ccc3c(c2)CCC(=O)N3C)cncc1C(C)NC(=O)c1ncccc1Cl (single isomer, unassigned) [Example 241, 3-Chloro-pyridine-2-carboxylic acid {(R or S)-1-[4-methyl-5-(1-methyl-2-oxo-1,2,3,4-tetrahydro-quinolin-6-yl)-pyridin-3-yl]-ethyl}-amide]"
6 nM,187 nM,CN1C(=O)CCc2cc(-c3cncc(CNC(=O)c4ncoc4C4CC4)c3)ccc21 [Example 110]
59 nM,4200 nM,"CCS(=O)(=O)NCc1cncc(-c2cc(F)c3c(c2)CCC(=O)N3C)c1 [Example 208, Ethanesulfonic acid [5-(8-fluoro-1-methyl-2-oxo-1,2,3,4-tetrahydro-quinolin-6-yl)-pyridin-3-ylmethyl]-amide]"
31 nM,800 nM,"CCS(=O)(=O)NC(C)c1cncc(-c2ccc3c(c2)CCC(=O)N3C)c1 (single isomer, unassigned) [Example 173, Ethanesulfonic acid {(R or S)-1-[5-(1-methyl-2-oxo-1,2,3,4-tetrahydro-quinolin-6-yl)-pyridin-3-yl]-ethyl}-amide]"
6 nM,151 nM,Cc1ocnc1C(=O)NCc1cncc(-c2ccc3c(c2)CCC(=O)N3C)c1 [Example 112]
35 nM,850 nM,"CCS(=O)(=O)N1CC[C@@H](Oc2cncc(-c3ccc4c(c3)CCC(=O)N4C)c2)C1 [Example 169, 6-[5-((R)-1-Ethanesulfonyl-pyrrolidin-3-yloxy)-pyridin-3-yl]-1-methyl-3,4-dihydro-1H-quinolin-2-one]"
49 nM,392 nM,"CN1C(=O)CCc2cc(-c3cncc(O[C@H]4CCN(C(=O)OC(C)(C)C)C4)c3)ccc21 [Example 48, (S)-3-[5-(1-Methyl-2-oxo-1,2,3,4-tetrahydro-quinolin-6-yl)-pyridin-3-yloxy]-pyrrolidine-1-carboxylic acid tert-butyl ester]"
86 nM,2580 nM,Cc1cc(C(=O)NCc2cncc(-c3ccc4c(c3)CCC(=O)N4C)c2)c(Cl)nn1 [Example 105]
172 nM,4640 nM,CCC(=O)N1CCC[C@H](Oc2cncc(-c3ccc4c(c3)CCC(=O)N4C)c2)C1 [Example 81]
